Series [1] deals with anti-sense pra2 transgenic plants. The series is described as follows: Complementation of dark-grown anti-sense pra2 transgenic plants with phytohormones and BR intermediates (hypocotyl length). It counts as in vivo, Nicotiana tabacum. To be noted: for stimulatory effect on hypocotyls as % of the BL effect / rescue of the dwarfish hypocotyls in BR feeding experiment: anti-sense pra2 transgenic plants grown 5 days in complete darkness; for stimulatory effect on hypocotyls as % of the BL effect: 6-OHCS 10^-8 M, 6-deoxoCS 10^-8 M; for rescue of the dwarfish hypocotyls in BR feeding experiment: CS 10^-8 M. As to the method:
Seeds of Nicotiana tabacum (Petit Havana SR1) were germinated and grown in sterile condition at 25° C. with a 16-hour photoperiod. The Arabidopsis thaliana ecotype Columbia (Col-0) was germinated and grown on 0.5×Murashige and Skoog medium containing 1% agar and Suc. All Arabidopsis cultures were maintained in a controlled environment culture room at 22° C. with the humidity of 70% and the photoperiod of 12 hours. Feeding experiments were also performed in the same culture conditions.
Plant growth regulators tested were BR, GA, auxin, cytokinine, abscisic acid, and salicylic acid. The BR hormones included the most oxidized brassinolide (BL, 10^−8 M) and various intermediates, such as campestanol (CN, 10^−6 M), 6-oxocampestanol (6-oxoCN, 10^−6 M), 6-deoxocathasterone (6-deoxoCT, 10^−6 M), cathasterone (CT, 10^−6 M), 6-deoxoteasterone (6-deoxoTE, 10^−6 M), teasterone (TE, 10^−6 M), 6-deoxotyphasterol (6-deoxoTY, 10^−7 M), typhasterol (TY, 10^−7 M), 6-deoxocastasterone (6-deoxoCS, 10^−8 M), 6α-hydroxycastasterone (6-OHCS, 10^−8 M), and castasterone (CS, 10^−8 M). Each BR intermediates were used at the concentrations as indicated in parentheses. […] Plants were germinated and grown in the presence of each BR intermediate for 4-7 days either in the light or in complete darkness. Hypocotyl lengths of 30-50 plants in each treatment were measured and averaged.

Series [2] concerns DDWF1. The series is described as follows: Substrate specificity of recombinant DDWF1 with BR intermediates, HPLC analysis. It counts as biochemical, pea. The note with it: reaction mixtures analyzed on HPLC. How it is done:
For HPLC analysis, BR intermediates were incubated with the DDWF1 as with testosterone, and the mixture was analyzed on the Waters 626 LC System and Photodiode Array Detector (Waters, Milford, Mass.). The reverse-phase Supelcosil LC-18 (250×4.6 mm, Supelco, Pa., USA) was used at a flow rate of 2 ml/min. The solvents used were 45% acetonitrile for the first 20 min, a gradient of 45% to 100% for the next 20 min, and pure acetonitrile for the last 10 min.

The subject of series [3] is DDWF1. The experiment in a line: DDWF1 activity assay with [4-14C]testosterone, TLC analysis. The note with it: N-terminal truncated recombinant DDWF1. It counts as biochemical, pea. How it is done: Forty μl of the [4-^14C]testosterone (Amersham-Pharmacia, Cat. No. CFA129, 193 μCi/mg) was aliquoted, and the solvent was evaporated under gentle stream of N2 gas. Yeast microsomal fractions were prepared as described (Pompon et al., 1996). Thirty μg of microsomal fraction, 5 μg of Pra2 protein, and various amounts of the recombinant DDWF1 were used for each reaction, each with 175 μl of the reaction buffer (1M HEPES, pH 7.4, 0.1 mM EDTA, 0.5 mM GTP, 10 mM MgCl2). The mixture was transferred to the tube containing the lyophilized testosterone and incubated for 10 min at 37° C. Twenty-five μl of NADPH solution, prepared in the same reaction buffer, was then added to the mixture to a final concentration of 1 mM. The total mixture was further incubated for 30 min at 37° C. and terminated by adding 1 ml of ethyl acetate and vortexing for 30 sec. After centrifugation for 4 min at 15000×g, the upper layer was recovered and evaporated in chemical hood overnight. The dry pellet was dissolved in 20 μl of ethyl acetate, spotted on TLC on Silicagel 60 F254 (20×20 cm, Merck, Darmstadt, Germany), and developed in dichloromethane/acetone (4:1 by volume) and then in chloroform/ethyl acetate/ethanol (4:1:0.7 by volume) as described (Waxman, 1991).

Series [4] addresses Q79L Pra2-GST fusion protein (constitutively active form) [GST: P08515].
In series [5] the target is wild type Pra2-GST fusion protein [GST: P08515].
Series [6] has as its target T34N Pra2-GST fusion protein (dominant negative form) [GST: P08515].

In the case of `CC(C)[C@H](C)[C@@H](O)[C@H](O)[C@@H](C)[C@H]1CC[C@H]2[C@@H]3C[C@H](O)[C@H]4C[C@H](O)[C@H](O)C[C@]4(C)[C@H]3CC[C@]12C` [6-OHCS, 6α-hydroxycastasterone], the “stimulatory effect on hypocotyls as % of the BL effect” value in series [1] was “about 50%”.

With `CC(C)[C@H](C)[C@@H](O)[C@H](O)[C@@H](C)[C@H]1CC[C@H]2[C@@H]3CC[C@H]4C[C@H](O)[C@H](O)C[C@]4(C)[C@H]3CC[C@]12C` [6-deoxoCS, 6-deoxocastasterone], the “stimulatory effect on hypocotyls as % of the BL effect” value in series [1] is on record as ~60%.

Regarding `CC(C)[C@H](C)[C@@H](O)[C@H](O)[C@@H](C)[C@H]1CC[C@H]2[C@@H]3COC(=O)[C@H]4C[C@H](O)[C@H](O)C[C@]4(C)[C@H]3CC[C@]12C` [BL, brassinolide], the “rescue of the dwarfish hypocotyls in BR feeding experiment” value in series [1] (BL 10^-8 M) was “completely rescued”. The “rescue of the dark-specific dwarfish hypocotyls” value in series [1] (anti-sense pra2 transgenic tobacco grown in the dark, phytohormones at physiological concentrations, BL 10^-8 M) is reported as “completely rescued”. For the same molecule, the “growth kinetics of transgenic versus control seedlings in the presence of BL” value in series [1] (dark-grown seedlings, hypocotyl length over time, FIG. 4C) is “became similar”. In addition, the “BL effect on transgenic plants grown in the light” value in series [1] (transgenic plants grown in the light) is given as “No BL effects”.

For `CC(C)[C@H](C)[C@@H](O)[C@H](O)[C@@H](C)[C@H]1CC[C@H]2[C@@H]3CC(=O)[C@H]4C[C@H](O)[C@H](O)C[C@]4(C)[C@H]3CC[C@]12C` [CS, castasterone], in series [1] (BL 10^-8 M), the “rescue of the dwarfish hypocotyls in BR feeding experiment” value is given as “completely rescued”. Further, the “conversion by recombinant DDWF1 (substrate specificity)” value in series [2] is “not the substrate”.

With `CC(C)[C@H](C)[C@@H](O)[C@H](O)[C@@H](C)[C@H]1CC[C@H]2[C@@H]3CC(=O)[C@H]4C[C@H](O)CC[C@]4(C)[C@H]3CC[C@]12C` [TY, typhasterol], the “conversion by recombinant DDWF1 (substrate specificity)” value in series [2] is given as “converted to CS”.

As to `C[C@]12CC[C@H]3[C@@H](CCC4=CC(=O)CC[C@@]43C)[C@@H]1CC[C@@H]2O` [Testosterone], the “substrate for DDWF1” value in series [3] is reported as “not the substrate”.

Regarding gibberellins [GA], in series [1] (anti-sense pra2 transgenic tobacco grown in the dark, phytohormones at physiological concentrations), the “stimulatory effect on hypocotyls relative to that by BL” value is 20-30%.

B1: recombinant N-terminal truncated DDWF1, soluble form expressed in E. coli (protein)
chain: MALQVLTLPSWVTLFTTFAILLLFSRRLRRRQYNLPPGPKPWPIIGNFNLIGTLPHQSLHGLTQKYGPIMHLWFGSKRVVVGSTVEMAKAFLKTHDATLAGRPKFSAGKYTTYNYSDITWSQYGPYWRQARRMCLLELFSAKRLESYEYIRKQELHVFLHELFDSRNKTILLKDHLSSLSLNVISRMVLGRKYLEKVENSIISPDEFKNMLDELFLLNGILNIGDFIPWIHFLDFQGYVKRMKVLSKKFDGFMEHVLEEHIERRKGVKDYVAKDMVDVLLQLAEDPDLEVKLERHGVKAFTQDLIAGGTESSAVTVEWAISELIRKPEIFKKATEELDRVIGRERWVEEKDIANLPYVYAIAKETMRLHPVAPMLVPREAREDCNINGYDIPKGSLILVNTWTIARDSNVWDNPNEFMPERFLGKDIDVKGHDYELLPFGAGRRMCPGYPLGIKVIQSSLANLLHGFNWRLSDDVKKEDLNMEEIFGLSTPKKIHPG
In the case of B1, the “conversion efficiency (DDWF1 hydroxylase activity on a testosterone intermediate, TLC)” value is “the conversion efficiency was slightly higher with the wild type and Q79L than with the T34N” in series [4]; “the conversion efficiency was slightly higher with the wild type and Q79L than with the T34N” in series [5]; “the conversion efficiency was slightly higher with the wild type and Q79L than with the T34N” in series [6].

Source of the values: patent US6605469B1, “Nucleic acid molecule encoding a cytochrome P-450 hydroxylase in brassinosteroid biosynthesis in plants” (Korea Kumho Petrochemical Co., Ltd., priority 2000, dated 2003).
